One test addresses WRN helicase (Homo sapiens (Human), UniProt Q14191). Nature of the test: In vitro enzymatic activity assay on WRN helicase (DNA dependent ATPase assay, ADP-Glo). The note with it: geometric means of at least 2 determinations; read-out: WRN ATPase Activity (IC50). In kind it is biochemical. An outline of the steps:
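DNA-dependent ATPase activity was measured by ADP-Glo luminescent ADP detection after a 30-min room-temperature reaction. The reaction contained 10 nM WRN (residues N517-P1238), 0.2 nM FLAP26 and 300 µM ATP at pH 7.5 with 2 mM MgCl2. Compounds were tested as 10-point half-log series in duplicate; IC50 values are geometric means from at least two independent experiments.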

The next test has as its system SW48 cells. Nature of the test: Proliferation assay SW48 (CellTiterGlo, 96 hours). As to conditions: Homo sapiens, SW48, read-out: Proliferation Assay SW48 (GI50).
The next test relates to DLD1-WRN-KO cells. Nature of the test: Proliferation assay DLD1-WRN-KO (CellTiterGlo, 96 hours; off-target effects). As to conditions: Homo sapiens, read-out: Proliferation Assay DLD1-WRN-KO (GI50). In general terms: ATP-based viability assays read luminescence as a measure of living cells.

For 16 compounds, IC50 and GI50 results are on record in patent US11878973B2, “Bicyclic compounds and their uses” (NOVARTIS AG, priority 2021, dated 2024).

WRN helicase, sequence (Q14191 517-1238): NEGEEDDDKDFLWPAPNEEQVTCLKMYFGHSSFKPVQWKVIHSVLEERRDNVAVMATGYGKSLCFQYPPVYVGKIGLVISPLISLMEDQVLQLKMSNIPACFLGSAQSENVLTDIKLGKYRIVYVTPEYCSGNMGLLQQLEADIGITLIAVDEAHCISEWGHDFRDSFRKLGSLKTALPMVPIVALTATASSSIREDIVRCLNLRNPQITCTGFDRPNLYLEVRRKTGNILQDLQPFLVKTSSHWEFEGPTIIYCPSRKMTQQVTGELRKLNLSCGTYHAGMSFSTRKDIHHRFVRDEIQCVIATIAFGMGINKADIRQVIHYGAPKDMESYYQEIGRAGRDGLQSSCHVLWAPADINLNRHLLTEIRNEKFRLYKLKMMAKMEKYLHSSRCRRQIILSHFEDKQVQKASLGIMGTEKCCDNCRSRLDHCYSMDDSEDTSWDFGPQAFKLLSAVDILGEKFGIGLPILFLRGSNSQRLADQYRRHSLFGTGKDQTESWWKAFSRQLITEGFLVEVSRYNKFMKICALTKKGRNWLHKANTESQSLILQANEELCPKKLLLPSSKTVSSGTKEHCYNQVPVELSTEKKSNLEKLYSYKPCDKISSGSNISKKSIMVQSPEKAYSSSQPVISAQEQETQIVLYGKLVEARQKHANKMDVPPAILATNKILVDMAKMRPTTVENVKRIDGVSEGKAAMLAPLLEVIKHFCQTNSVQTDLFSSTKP

For the compound `CCc1c(N2CCN(C(=O)c3ncccc3O)CC2)c(=O)n2nc(C3=CNCCC3)nc2n1CC(=O)Nc1ccc(C(F)(F)F)cc1C` [Example 109, 2-(5-ethyl-6-(4-(3-hydroxypicolinoyl)piperazin-1-yl)-7-oxo-2-(1,4,5,6-tetrahydropyridin-3-yl)-[1,2,4]triazolo[1,5-a]pyrimidin-4(7H)-yl)-N-(2-methyl-4-(trifluoromethyl)phenyl)acetamide], the IC50 (usually the concentration that gives 50% inhibition) at WRN helicase stood at 1180 nM. In addition, the GI50 with SW48 cells was 690 nM; in the test with DLD1-WRN-KO cells it was > 10000 nM.
`CCc1c(N2CCN(C(=O)c3ncccc3O)CC2)c(=O)n2nc(C3=CCCCN3)nc2n1CC(=O)Nc1ccc(C(F)(F)F)cc1C` [Example 110, 2-(5-ethyl-6-(4-(3-hydroxypicolinoyl)piperazin-1-yl)-7-oxo-2-(1,4,5,6-tetrahydropyridin-2-yl)-[1,2,4]triazolo[1,5-a]pyrimidin-4(7H)-yl)-N-(2-methyl-4-(trifluoromethyl)phenyl)acetamide]: the half-inhibitory concentration (IC50) at WRN helicase was determined as 360 nM. Also, the values for the GI50 in the test on SW48 cells and in the test on DLD1-WRN-KO cells were 1210 nM and > 10000 nM, respectively.
For `CCc1c(N2CCN(C(=O)c3ncccc3O)CC2)c(=O)n2nc(C3=CCNCC3)nc2n1CC(=O)Nc1ccc(C(F)(F)F)cc1C` [Example 112, 2-(5-ethyl-6-(4-(3-hydroxypicolinoyl)piperazin-1-yl)-7-oxo-2-(1,2,3,6-tetrahydropyridin-4-yl)-[1,2,4]triazolo[1,5-a]pyrimidin-4(7H)-yl)-N-(2-methyl-4-(trifluoromethyl)phenyl)acetamide], in that order: 510 nM, 7940 nM and > 10000 nM.
For `CCc1c(N2CCN(C(=O)c3ncccc3O)CC2)c(=O)n2nc(C3=COCCO3)nc2n1CC(=O)Nc1ccc(C(F)(F)F)cc1C` [Example 113, 2-(2-(5,6-dihydro-1,4-dioxin-2-yl)-5-ethyl-6-(4-(3-hydroxypicolinoyl)piperazin-1-yl)-7-oxo-[1,2,4]triazolo[1,5-a]pyrimidin-4(7H)-yl)-N-(2-methyl-4-(trifluoromethyl)phenyl)acetamide], in that order: 40 nM, 120 nM and > 10000 nM.
In the same order, the values of `CCc1c(N2CCN(C(=O)c3ncccc3O)CC2)c(=O)n2nc(C3=CCCOC3)nc2n1CC(=O)Nc1ccc(C(F)(F)F)cc1C` [Example 114, 2-(2-(5,6-dihydro-2H-pyran-3-yl)-5-ethyl-6-(4-(3-hydroxypicolinoyl)piperazin-1-yl)-7-oxo-[1,2,4]triazolo[1,5-a]pyrimidin-4(7H)-yl)-N-(2-methyl-4-(trifluoromethyl)phenyl)acetamide] are 90 nM, 180 nM and > 10000 nM.
Regarding `CCc1c(N2CCN(C(=O)c3ncccc3O)CC2)c(=O)n2nc(C3=CCN(CC(F)F)CC3)nc2n1CC(=O)Nc1ccc(C(F)(F)F)cc1C` [Example 115, 2-(2-(1-(2,2-difluoroethyl)-1,2,3,6-tetrahydropyridin-4-yl)-5-ethyl-6-(4-(3-hydroxypicolinoyl)piperazin-1-yl)-7-oxo-[1,2,4]triazolo[1,5-a]pyrimidin-4(7H)-yl)-N-(2-methyl-4-(trifluoromethyl)phenyl)acetamide], the IC50 on WRN helicase was 170 nM. The GI50 was 200 nM in the test on SW48 cells and > 10000 nM in the test with DLD1-WRN-KO cells.
For `CCc1c(N2CCN(C(=O)c3ncccc3O)CC2)c(=O)n2nc(C3=CCOCC3)nc2n1CC(=O)Nc1cc(F)c(C(F)(F)F)cc1Cl` [Example 116, N-(2-chloro-5-fluoro-4-(trifluoromethyl)phenyl)-2-(2-(3,6-dihydro-2H-pyran-4-yl)-5-ethyl-6-(4-(3-hydroxypicolinoyl)piperazin-1-yl)-7-oxo-[1,2,4]triazolo[1,5-a]pyrimidin-4(7H)-yl)acetamide], in that order: 60 nM, 80 nM and 6600 nM.
In the same order, the values of `Cc1c(N2CCN(C(=O)c3ncccc3O)CC2)c(=O)n2nc(C3=CCOCC3)nc2n1CC(=O)Nc1ccc(C(F)(F)F)cc1` [Example 117, 2-(2-(3,6-dihydro-2H-pyran-4-yl)-6-(4-(3-hydroxypicolinoyl)piperazin-1-yl)-5-methyl-7-oxo-[1,2,4]triazolo[1,5-a]pyrimidin-4(7H)-yl)-N-(4-(trifluoromethyl)phenyl)acetamide] are 40 nM, 260 nM and > 10000 nM.
For `CCc1c(N2C[C@@H](C)N(C(=O)c3ncnc(C)c3O)C[C@@H]2C)c(=O)n2nc(C3=CCOCC3)nc2n1CC(=O)Nc1ccc(C(F)(F)F)cc1Cl` [Example 118, N-(2-chloro-4-(trifluoromethyl)phenyl)-2-(2-(3,6-dihydro-2H-pyran-4-yl)-5-ethyl-6-((2S,5R)-4-(5-hydroxy-6-methylpyrimidine-4-carbonyl)-2,5-dimethylpiperazin-1-yl)-7-oxo-[1,2,4]triazolo[1,5-a]pyrimidin-4(7H)-yl)acetamide], in that order: 90 nM, 450 nM and > 10000 nM.
In the case of `CCc1c(N2CCN(C(=O)c3ncnc(C)c3O)[C@H](C)[C@H]2C)c(=O)n2nc(C3=CCOCC3)nc2n1CC(=O)Nc1ccc(C(F)(F)F)cc1Cl` [Example 119, N-(2-chloro-4-(trifluoromethyl)phenyl)-2-(2-(3,6-dihydro-2H-pyran-4-yl)-5-ethyl-6-((2R,3R)-4-(5-hydroxy-6-methylpyrimidine-4-carbonyl)-2,3-dimethylpiperazin-1-yl)-7-oxo-[1,2,4]triazolo[1,5-a]pyrimidin-4(7H)-yl)acetamide], the IC50 on WRN helicase stood at 160 nM. Moreover, the GI50 in the test on SW48 cells is 50 nM; in the test on DLD1-WRN-KO cells it was > 10000 nM.
In the same order, the values of `CCc1c(N2CCN(C(=O)c3ncnc(C)c3O)[C@@H](C)[C@@H]2C)c(=O)n2nc(C3=CCOCC3)nc2n1CC(=O)Nc1ccc(C(F)(F)F)cc1Cl` [Example 120, N-(2-chloro-4-(trifluoromethyl)phenyl)-2-(2-(3,6-dihydro-2H-pyran-4-yl)-5-ethyl-6-((2S,3S)-4-(5-hydroxy-6-methylpyrimidine-4-carbonyl)-2,3-dimethylpiperazin-1-yl)-7-oxo-[1,2,4]triazolo[1,5-a]pyrimidin-4(7H)-yl)acetamide] are 470 nM, 930 nM and > 10000 nM.
Take `CCc1c(N2CCN(C(=O)c3ncnc(C)c3O)[C@@H]3CC[C@H]32)c(=O)n2nc(C3=CCOCC3)nc2n1CC(=O)Nc1ccc(C(F)(F)F)cc1Cl` [Example 124, N-(2-chloro-4-(trifluoromethyl)phenyl)-2-(2-(3,6-dihydro-2H-pyran-4-yl)-5-ethyl-6-((1R,6R)-5-(5-hydroxy-6-methylpyrimidine-4-carbonyl)-2,5-diazabicyclo[4.2.0]octan-2-yl)-7-oxo-[1,2,4]triazolo[1,5-a]pyrimidin-4(7H)-yl)acetamide]: at WRN helicase, the IC50 amounted to 360 nM. For the same compound, the GI50 was 390 nM with SW48 cells and > 10000 nM with DLD1-WRN-KO cells.
For `CCc1c(N2CCN(C(=O)c3ncnc(C)c3O)[C@H]3CC[C@@H]32)c(=O)n2nc(C3=CCOCC3)nc2n1CC(=O)Nc1ccc(C(F)(F)F)cc1Cl` [Example 125, N-(2-chloro-4-(trifluoromethyl)phenyl)-2-(2-(3,6-dihydro-2H-pyran-4-yl)-5-ethyl-6-((1 S,6S)-5-(5-hydroxy-6-methylpyrimidine-4-carbonyl)-2,5-diazabicyclo[4.2.0]octan-2-yl)-7-oxo-[1,2,4]triazolo[1,5-a]pyrimidin-4(7H)-yl)acetamide], in that order: 30 nM, 10 nM and > 10000 nM.
For `CCc1c(N2CCN(C(=O)c3ncnc(C)c3O)CC2)c(=O)n2nc(C3=CC[C@H](F)CO3)nc2n1CC(=O)Nc1ccc(C(F)(F)F)cc1Cl` [Example 127, (S)—N-(2-chloro-4-(trifluoromethyl)phenyl)-2-(5-ethyl-2-(3-fluoro-3,4-dihydro-2H-pyran-6-yl)-6-(4-(5-hydroxy-6-methylpyrimidine-4-carbonyl)piperazin-1-yl)-7-oxo-[1,2,4]triazolo[1,5-a]pyrimidin-4(7H)-yl)acetamide], in that order: 80 nM, 90 nM and > 10000 nM.
In the same order, the values of `CCc1c(N2CCN(C(=O)c3nc(N4CCN(C)CC4)ncc3O)CC2)c(=O)n2nc(C3=CCOCC3)nc2n1CC(=O)Nc1ccc(C(F)(F)F)cc1C` [Example 128, 2-(2-(3,6-dihydro-2H-pyran-4-yl)-5-ethyl-6-(4-(5-hydroxy-2-(4-methylpiperazin-1-yl)pyrimidine-4-carbonyl)piperazin-1-yl)-7-oxo-[1,2,4]triazolo[1,5-a]pyrimidin-4(7H)-yl)-N-(2-methyl-4-(trifluoromethyl)phenyl)acetamide] are 80 nM, 690 nM and > 10000 nM.
As for `Cc1nc(C(F)(F)F)ccc1NC(=O)Cn1c(C)c(N2CCN(C(=O)c3ncccc3O)CC2)c(=O)n2nc(C3=CCOCC3)nc12` [Example 129, 2-(2-(3,6-dihydro-2H-pyran-4-yl)-6-(4-(3-hydroxypicolinoyl)piperazin-1-yl)-5-methyl-7-oxo-[1,2,4]triazolo[1,5-a]pyrimidin-4(7H)-yl)-N-(2-methyl-6-(trifluoromethyl)pyridin-3-yl)acetamide], the IC50 at WRN helicase is 500 nM. Moreover, the GI50 is 2550 nM in the test with SW48 cells and > 10000 nM in the test on DLD1-WRN-KO cells.
